According to US20180050993A1, “NOVEL FLUORINATED DERIVATIVES AS EGFR INHIBITORS USEFUL FOR TREATING CANCERS” (Trillium Therapeutics Inc., priority 2015, published 2018):
pIC50: −log10 of the molar value. Structures can show the parent of a compound that is named as a salt.

Test system: HCC827
Experiment: Comparison with 1st generation inhibitors against a lung cancer cell line (HCC827)
Assay type: cell-based
Details: Homo sapiens, read-out: Biochemical IC50

**Q.** How did the pIC50 turn out when `Fc1ccc(Nc2ncnc3cc(OCCOC(F)F)c(OCCOC(F)F)cc23)c(F)c1Cl` [Compound 2D•HCl, N-(3-chloro-2,4-difluoro-phenyl)-6,7-bis[2-(difluoromethoxy)ethoxy]quinazolin-4-amine] was run?
**A.** Its pIC50 is 7.77.
